In brackets after ≈: the same amount, converted by molar mass.
Tests used:
Oryctolagus sp. = settings: reproduction developmental; morphology
Daphnia magna = settings: chronic/long-term; duration: 21 days
Apis mellifera = settings: acute, mortality
Tagia sp. = settings: for LC50: acute
Colinus virginianus = settings: acute; oral; mortality
Oncorhynchus mykiss = settings: for LC50: acute, duration: 96 hours, mortality; for NOEC: chronic/long-term
Folsomia candida = settings: chronic/long-term

Structure (SMILES) | NOAEL (Oryctolagus sp.) [mg/kg-day] | NOEC (Daphnia magna) [mg/L] | LC50 (Rattus norvegicus; acute, mortality) [mg/kg] | NOAEL (Rattus norvegicus; reproduction developmental) [mg/kg-day] | NOAEL (Rattus norvegicus; reproduction developmental, morphology) [mg/kg-day] | NOAEL (Rattus norvegicus; subchronic, duration: 90 days, oral, histopathology: neoplastic) [mg/kg-day] | LD50 (Apis mellifera; dermal) [µg/piece] | LD50 (Apis mellifera; oral, unspecified) [µg/piece] | NOEC (Anas platyrhynchos; reproductive, duration: 15 months, morphology) [mg/kg-day] | LC50 (Anas platyrhynchos; short-term, duration: 5 days, oral, feed, mortality) [mg/kg] | LC50 (Tagia sp.; duration: 14 days, mortality) [mg/kg] | LD50 (Colinus virginianus) [mg/kg] | LC50 (Oncorhynchus mykiss) [µg/mL] | NOEC (Oncorhynchus mykiss; duration: 21 days) [mg/L] | LC50 (Tagia sp.) [mg/kg] | NOEC (Tagia sp.; chronic/long-term) [mg/kg] | NOEC (Oncorhynchus mykiss; duration: 28 days, other) [mg/L] | NOEC (Folsomia candida) [mg/kg]
Nc1ncn[nH]1 [Amitrole] | 3 | 0.32 | 5000 | 0.9 | 0.12 | 0.1 | > 100 | > 152 | 16 | > 829 | > 448 | > 2150 | > 1000 | 100 |  |  |  | 
c1nc[nH]n1 [1H-1,2,4-Triazole] |  |  |  |  |  |  |  |  |  |  |  |  | 498 (≈ 7.21 mM) |  | > 1000 | ≤ 1 | 3.2 | 1.8

— EPA's ToxValDB 9.5 (doi:10.2903/j.efsa.2014.3742)
